{"source": "patent US7354567B2", "about": "“Method of encapsulating metal complex within liposomes” (Bio Med Core Incorporation, priority 2002, dated 2008)", "key": {"[1]": {"test": "Partition coefficient of HMPAO and MRP20 (octanol/buffer, absorbance)", "format": "physicochemical", "protocol": "4. Measurement of Partition Coefficient of HMPAO and MRP20\n20 μl of HMPAO or MRP20 solutions adjusted to 8 mM with a physiology saline solution was added to 500 μl of octanol and 500 μl of a HEPES buffer solution (pH 7.0) or Na2HPO4—NaOH buffer solution (pH 12.0). The mixture was allowed to stand still after stirring. Absorption of the octanol layer and the aqueous layer was measured, and the lipophilic properties of the two complexes were compared."}, "[2]": {"test": "Stability of 99mTc complex in an aqueous solution (radiochemical purity over time)", "format": "physicochemical", "settings": "for radiochemical purity: after purification by RP-HPLC, after 24 hours", "protocol": "5. Stability of ^99mTc Complex in an Aqueous Solution\nIn order to compare the stability of ^99mTc-HMPAO and ^99mTc-MRP20 in an aqueous solution, ^99mTc-HMPAO solution was diluted with 50 mM ammonia buffer solution (pH 9.4) into the final ligand concentration of 1 mM. The mixture was incubated in a water bath of 25° C. or 37° C., and radiochemical purity was determined by the above-mentioned analyzing methods after predetermined time (0.5, 2, 4, 8, or 24 hours). ^99mTc-MRP20 aqueous solution was diluted with 50 mM phosphate buffer solution (pH 8.3), and the similar operations were effected.\nFor the purpose of examining the effect of free ligands on the stability, ^99mTc complex solution was purified by RP-HPLC, and the purified ^99mTc complex solution eluted in 100% acetonitrile was mixed and diluted in the ratio of 1:1 with a buffer solution, and changes over time of the radiochemical purity of the complex was examined similarly as for the complex before purification."}}}
{"molecule": "C/C(=N\\O)C(C)NCC(C)(C)CNC(C)/C(C)=N/O", "note": "(centres unmarked) [HMPAO, hexamethyl propyleneamine oxime, reference compound]", "values": [{"measurement": "Absorbance transferred to the octanol layer", "setting": "[1]; octanol / buffer (pH 7.0 or pH 12.0)", "result": "below the detection limit"}]}
{"molecule": "C/C(=N\\[O-])[C@@H](C)[N-]CC(C)(C)C[N-][C@H](C)/C(C)=N/O.[O]=[99Tc+3]", "note": "[^99mTc-HMPAO, ^99mTc-hexamethyl propyleneamine oxime, reference compound]", "values": [{"measurement": "radiochemical purity", "setting": "[2]; 25° C.", "result": 59, "unit": "%"}, {"measurement": "radiochemical purity remaining (decomposed to)", "setting": "[2]; unpurified complex, 30 minutes after complex formation", "result": "about 40%"}]}
{"molecule": "CC(=O)C=C(C)NCCNCc1ccc[nH]1", "note": "[MRP20, N-[2-(1H-pyrrolylmethyl)]-N′-(4-penten-3-one-2)-ethane-1,2-diamine]", "values": [{"measurement": "ratio of absorbances in the octanol layer and the water layer", "setting": "[1]; pH of the buffer 7.0", "result": "2.1±0.7"}, {"measurement": "ratio of absorbances in the octanol layer and the water layer", "setting": "[1]; pH of the buffer 12.0", "result": "5.0±1.6"}]}
{"molecule": "^99mTc-N-[2-(1H-pyrrolylmethyl)]-N′-(4-penten-3-on-2)-ethane-1,2-diamine [^99mTc-MRP20]", "values": [{"measurement": "radiochemical purity", "setting": "[2]; 25° C.", "result": 6, "unit": "%"}, {"measurement": "radiochemical purity remaining (decomposed to)", "setting": "[2]; unpurified complex, 25° C., 4 hours after complex formation", "result": "about 40%"}, {"measurement": "radiochemical purity retained", "setting": "[2]; unpurified complex, 2 hours after complex formation", "result": "about 70%"}]}
